From publication PMC10838953

Assays:
TEC = TEC (Homo sapiens, UniProt P42680); assay: biochemical; details: read-out: %Ctrl @ 2000nM
[1] = target: RPS6KA4(Kin.Dom.1-N-terminal) (Homo sapiens, UniProt O75676); assay: biochemical; details: read-out: %Ctrl @ 2000nM
CLK3 = CLK3 (Homo sapiens, UniProt P49761); assay: biochemical; details: read-out: %Ctrl @ 2000nM
TSSK1B = TSSK1B (Homo sapiens, UniProt Q9BXA7); assay: biochemical; details: read-out: %Ctrl @ 2000nM
PHKG1 = PHKG1 (Homo sapiens, UniProt Q16816); assay: biochemical; details: read-out: %Ctrl @ 2000nM
PRKD3 = PRKD3 (Homo sapiens, UniProt O94806); assay: biochemical; details: read-out: %Ctrl @ 2000nM
FLT3(N841I) = FLT3(N841I) (Homo sapiens, UniProt P36888, N841I); assay: biochemical; details: read-out: %Ctrl @ 2000nM
MEK3 = MEK3 (Homo sapiens, UniProt P46734); assay: biochemical; details: read-out: %Ctrl @ 2000nM
FGFR3(G697C) = FGFR3(G697C) (Homo sapiens, UniProt P22607, G697C); assay: biochemical; details: read-out: %Ctrl @ 2000nM
p38-delta = p38-delta (Homo sapiens, UniProt O15264); assay: biochemical; details: read-out: %Ctrl @ 2000nM
PAK4 = PAK4 (Homo sapiens, UniProt O96013); assay: biochemical; details: read-out: %Ctrl @ 2000nM
INSR = INSR (Homo sapiens, UniProt P06213); assay: biochemical; details: read-out: %Ctrl @ 2000nM
HASPIN = HASPIN (Homo sapiens, UniProt Q8TF76); assay: biochemical; details: read-out: %Ctrl @ 2000nM
HASPIN, sequence (Q8TF76 whole entry): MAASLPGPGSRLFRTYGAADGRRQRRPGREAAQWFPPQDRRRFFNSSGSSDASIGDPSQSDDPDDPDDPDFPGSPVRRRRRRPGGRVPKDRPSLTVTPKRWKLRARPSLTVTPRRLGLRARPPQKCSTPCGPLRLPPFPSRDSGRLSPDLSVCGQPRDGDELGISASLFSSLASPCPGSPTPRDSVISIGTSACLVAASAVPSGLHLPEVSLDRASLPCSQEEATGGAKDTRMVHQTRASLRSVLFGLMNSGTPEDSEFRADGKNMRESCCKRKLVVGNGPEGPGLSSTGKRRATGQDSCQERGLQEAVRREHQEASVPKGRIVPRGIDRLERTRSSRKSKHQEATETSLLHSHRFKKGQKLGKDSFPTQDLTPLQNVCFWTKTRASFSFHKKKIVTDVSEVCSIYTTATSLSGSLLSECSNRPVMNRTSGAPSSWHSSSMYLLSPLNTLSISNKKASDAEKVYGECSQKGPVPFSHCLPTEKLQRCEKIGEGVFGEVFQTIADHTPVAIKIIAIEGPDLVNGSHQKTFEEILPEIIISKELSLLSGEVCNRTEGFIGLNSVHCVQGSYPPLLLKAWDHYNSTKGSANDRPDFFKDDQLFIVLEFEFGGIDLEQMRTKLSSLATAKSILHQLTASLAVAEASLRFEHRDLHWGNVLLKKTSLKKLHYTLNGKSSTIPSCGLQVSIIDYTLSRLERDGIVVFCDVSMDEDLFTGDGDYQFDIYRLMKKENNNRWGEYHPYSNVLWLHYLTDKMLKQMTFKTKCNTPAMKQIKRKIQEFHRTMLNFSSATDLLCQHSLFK

HCK = HCK (Homo sapiens, UniProt P08631); assay: biochemical; details: read-out: %Ctrl @ 2000nM
WNK2 = WNK2 (Homo sapiens, UniProt Q9Y3S1); assay: biochemical; details: read-out: %Ctrl @ 2000nM
HEK293 cells = details: high concentrations
KIT(A829P) = KIT(A829P) (Homo sapiens, UniProt P10721, A829P); assay: biochemical; details: read-out: %Ctrl @ 2000nM
MAPKAPK2 = MAPKAPK2 (Homo sapiens, UniProt P49137); assay: biochemical; details: read-out: %Ctrl @ 2000nM
TRPM6 = TRPM6 (Homo sapiens, UniProt Q9BX84); assay: biochemical; details: read-out: %Ctrl @ 2000nM
TRPM6, sequence (Q9BX84 whole entry): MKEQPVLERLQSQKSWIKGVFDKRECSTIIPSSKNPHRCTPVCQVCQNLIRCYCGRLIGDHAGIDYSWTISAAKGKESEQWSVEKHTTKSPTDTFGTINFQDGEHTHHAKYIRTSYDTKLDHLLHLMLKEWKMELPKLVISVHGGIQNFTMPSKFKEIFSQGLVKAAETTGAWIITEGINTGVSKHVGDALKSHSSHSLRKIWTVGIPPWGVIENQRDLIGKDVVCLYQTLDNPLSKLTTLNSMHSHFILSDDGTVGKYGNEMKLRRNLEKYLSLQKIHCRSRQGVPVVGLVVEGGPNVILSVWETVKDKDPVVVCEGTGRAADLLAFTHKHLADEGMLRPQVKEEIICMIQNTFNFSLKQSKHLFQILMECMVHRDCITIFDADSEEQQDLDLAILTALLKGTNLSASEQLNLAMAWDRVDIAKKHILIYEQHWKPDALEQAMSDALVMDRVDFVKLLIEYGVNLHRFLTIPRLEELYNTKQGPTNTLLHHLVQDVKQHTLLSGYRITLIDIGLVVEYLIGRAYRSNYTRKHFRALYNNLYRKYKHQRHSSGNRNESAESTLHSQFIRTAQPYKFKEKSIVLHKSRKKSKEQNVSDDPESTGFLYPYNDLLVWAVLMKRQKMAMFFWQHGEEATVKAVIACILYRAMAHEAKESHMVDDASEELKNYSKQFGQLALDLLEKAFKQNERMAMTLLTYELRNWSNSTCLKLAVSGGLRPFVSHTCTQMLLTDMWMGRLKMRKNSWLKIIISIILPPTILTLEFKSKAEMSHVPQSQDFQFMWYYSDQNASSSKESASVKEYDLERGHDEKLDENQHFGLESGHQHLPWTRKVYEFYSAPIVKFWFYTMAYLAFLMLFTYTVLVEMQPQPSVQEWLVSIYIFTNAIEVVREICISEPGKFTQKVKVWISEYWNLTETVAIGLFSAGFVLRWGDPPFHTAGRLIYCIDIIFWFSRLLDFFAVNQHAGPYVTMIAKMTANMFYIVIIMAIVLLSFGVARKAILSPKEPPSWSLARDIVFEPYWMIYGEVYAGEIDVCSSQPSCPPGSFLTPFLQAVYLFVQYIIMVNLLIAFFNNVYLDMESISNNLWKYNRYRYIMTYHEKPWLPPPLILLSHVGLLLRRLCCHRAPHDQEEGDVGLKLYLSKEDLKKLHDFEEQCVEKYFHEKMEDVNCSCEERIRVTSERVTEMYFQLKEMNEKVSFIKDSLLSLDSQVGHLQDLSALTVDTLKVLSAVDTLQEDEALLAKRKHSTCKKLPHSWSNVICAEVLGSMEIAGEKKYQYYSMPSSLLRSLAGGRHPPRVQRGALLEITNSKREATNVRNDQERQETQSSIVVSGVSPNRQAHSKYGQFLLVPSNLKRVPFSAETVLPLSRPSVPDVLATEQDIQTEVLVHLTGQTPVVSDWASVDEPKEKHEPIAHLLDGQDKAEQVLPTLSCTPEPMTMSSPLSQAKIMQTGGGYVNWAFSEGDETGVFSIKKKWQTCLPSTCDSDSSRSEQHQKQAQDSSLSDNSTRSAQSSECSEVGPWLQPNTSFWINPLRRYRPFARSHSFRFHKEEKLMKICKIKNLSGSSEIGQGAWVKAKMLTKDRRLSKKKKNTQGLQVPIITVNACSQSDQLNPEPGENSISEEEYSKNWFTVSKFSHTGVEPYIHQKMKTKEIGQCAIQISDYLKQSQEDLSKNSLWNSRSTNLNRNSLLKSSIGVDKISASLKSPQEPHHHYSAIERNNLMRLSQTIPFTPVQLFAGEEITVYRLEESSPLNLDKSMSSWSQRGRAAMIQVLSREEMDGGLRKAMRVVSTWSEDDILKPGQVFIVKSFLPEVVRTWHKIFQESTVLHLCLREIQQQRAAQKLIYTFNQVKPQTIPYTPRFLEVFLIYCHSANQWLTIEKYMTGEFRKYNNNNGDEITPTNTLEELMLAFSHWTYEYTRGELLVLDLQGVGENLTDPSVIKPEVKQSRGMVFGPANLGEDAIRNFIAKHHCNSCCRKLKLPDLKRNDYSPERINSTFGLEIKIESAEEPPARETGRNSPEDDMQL

CDK11 = CDK11 (Homo sapiens, UniProt Q9BWU1); assay: biochemical; details: read-out: %Ctrl @ 2000nM
CDK11, sequence (Q9BWU1 whole entry): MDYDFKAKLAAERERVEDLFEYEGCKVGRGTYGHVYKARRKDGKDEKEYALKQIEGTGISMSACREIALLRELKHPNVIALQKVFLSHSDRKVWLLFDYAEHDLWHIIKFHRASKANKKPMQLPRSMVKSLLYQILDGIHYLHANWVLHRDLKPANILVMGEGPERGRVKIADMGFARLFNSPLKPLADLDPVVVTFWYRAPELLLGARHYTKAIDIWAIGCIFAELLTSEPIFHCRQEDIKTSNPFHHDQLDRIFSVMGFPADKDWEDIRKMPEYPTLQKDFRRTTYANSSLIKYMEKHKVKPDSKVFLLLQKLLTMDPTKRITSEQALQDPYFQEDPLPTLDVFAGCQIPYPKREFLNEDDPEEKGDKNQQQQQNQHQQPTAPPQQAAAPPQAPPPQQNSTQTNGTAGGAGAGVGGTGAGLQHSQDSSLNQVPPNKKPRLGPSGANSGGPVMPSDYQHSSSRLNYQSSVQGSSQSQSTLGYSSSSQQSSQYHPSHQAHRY

CSF1R = CSF1R (Homo sapiens, UniProt P07333); assay: biochemical; details: read-out: %Ctrl @ 2000nM
EPHB1 = EPHB1 (Homo sapiens, UniProt P54762); assay: biochemical; details: read-out: %Ctrl @ 2000nM
ERBB4 = ERBB4 (Homo sapiens, UniProt Q15303); assay: biochemical; details: read-out: %Ctrl @ 2000nM
AURKB = AURKB (Homo sapiens, UniProt Q96GD4); assay: biochemical; details: read-out: %Ctrl @ 2000nM
AURKB, sequence (Q96GD4 whole entry): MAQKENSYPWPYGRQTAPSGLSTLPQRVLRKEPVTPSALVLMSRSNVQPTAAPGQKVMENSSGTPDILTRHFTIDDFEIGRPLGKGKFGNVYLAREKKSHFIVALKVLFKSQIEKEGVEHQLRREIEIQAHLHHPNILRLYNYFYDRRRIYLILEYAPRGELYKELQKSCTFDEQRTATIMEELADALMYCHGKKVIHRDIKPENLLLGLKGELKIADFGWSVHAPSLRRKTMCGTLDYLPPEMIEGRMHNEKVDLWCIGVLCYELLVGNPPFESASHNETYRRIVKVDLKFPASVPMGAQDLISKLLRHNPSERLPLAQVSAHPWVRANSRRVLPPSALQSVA

MARK3 = MARK3 (Homo sapiens, UniProt P27448); assay: biochemical; details: read-out: %Ctrl @ 2000nM
MKNK1 = MKNK1 (Homo sapiens, UniProt Q9BUB5); assay: biochemical; details: read-out: %Ctrl @ 2000nM
survivin = details: 786-O cells; 2.5-15 μM; 48 h
PIM1 = PIM1 (Homo sapiens, UniProt P11309); assay: biochemical; details: read-out: %Ctrl @ 2000nM
RAF1 = RAF1 (Homo sapiens, UniProt P04049); assay: biochemical; details: read-out: %Ctrl @ 2000nM
CDK3 = CDK3 (Homo sapiens, UniProt Q00526); assay: biochemical; details: read-out: %Ctrl @ 2000nM
CDK3, sequence (Q00526 whole entry): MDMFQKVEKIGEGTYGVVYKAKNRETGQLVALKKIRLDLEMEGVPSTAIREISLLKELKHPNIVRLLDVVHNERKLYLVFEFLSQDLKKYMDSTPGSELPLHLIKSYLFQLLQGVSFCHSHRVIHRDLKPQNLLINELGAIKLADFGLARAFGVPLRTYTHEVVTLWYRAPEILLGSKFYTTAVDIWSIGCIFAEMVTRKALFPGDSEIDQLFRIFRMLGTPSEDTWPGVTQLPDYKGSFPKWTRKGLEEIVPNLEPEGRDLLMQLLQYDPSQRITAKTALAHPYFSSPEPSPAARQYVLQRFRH

ERK2 = ERK2 (Homo sapiens, UniProt P28482); assay: biochemical; details: read-out: %Ctrl @ 2000nM
ERK2, sequence (P28482 whole entry): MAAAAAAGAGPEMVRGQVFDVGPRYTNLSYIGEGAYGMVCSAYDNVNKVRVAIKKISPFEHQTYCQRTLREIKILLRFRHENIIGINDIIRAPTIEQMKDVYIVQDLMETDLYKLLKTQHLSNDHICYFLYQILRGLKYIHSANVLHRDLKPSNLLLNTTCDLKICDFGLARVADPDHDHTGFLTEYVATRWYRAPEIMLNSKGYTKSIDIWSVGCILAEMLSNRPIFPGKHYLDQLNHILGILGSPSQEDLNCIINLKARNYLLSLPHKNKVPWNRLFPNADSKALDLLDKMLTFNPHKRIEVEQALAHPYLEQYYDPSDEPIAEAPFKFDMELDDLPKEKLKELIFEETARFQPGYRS

EPHA3 = EPHA3 (Homo sapiens, UniProt P29320); assay: biochemical; details: read-out: %Ctrl @ 2000nM
MST4 = MST4 (Homo sapiens, UniProt Q9P289); assay: biochemical; details: read-out: %Ctrl @ 2000nM
p38-alpha = p38-alpha (Homo sapiens, UniProt Q16539); assay: biochemical; details: read-out: %Ctrl @ 2000nM
PRKX = PRKX (Homo sapiens, UniProt P51817); assay: biochemical; details: read-out: %Ctrl @ 2000nM
ULK3 = ULK3 (Homo sapiens, UniProt Q6PHR2); assay: biochemical; details: read-out: %Ctrl @ 2000nM
[2] = target: ABL1(M351T)-phosphorylated (Homo sapiens, UniProt P00519, M351T); assay: biochemical; details: read-out: %Ctrl @ 2000nM
MEK1 = MEK1 (Homo sapiens, UniProt Q02750); assay: biochemical; details: read-out: %Ctrl @ 2000nM
MEK1, sequence (Q02750 whole entry): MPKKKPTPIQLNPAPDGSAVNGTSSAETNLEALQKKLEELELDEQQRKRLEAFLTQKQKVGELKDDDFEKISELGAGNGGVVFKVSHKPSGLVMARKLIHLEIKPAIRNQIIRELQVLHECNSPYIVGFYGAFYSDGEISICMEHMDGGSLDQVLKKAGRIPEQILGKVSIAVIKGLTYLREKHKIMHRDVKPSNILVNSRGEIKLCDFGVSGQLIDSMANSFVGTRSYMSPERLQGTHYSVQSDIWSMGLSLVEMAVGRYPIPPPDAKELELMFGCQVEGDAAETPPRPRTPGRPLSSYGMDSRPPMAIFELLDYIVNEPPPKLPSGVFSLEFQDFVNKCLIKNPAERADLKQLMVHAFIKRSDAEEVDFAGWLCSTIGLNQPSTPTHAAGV

DMPK = DMPK (Homo sapiens, UniProt Q09013); assay: biochemical; details: read-out: %Ctrl @ 2000nM
JNK1 = JNK1 (Homo sapiens, UniProt P45983); assay: biochemical; details: read-out: %Ctrl @ 2000nM
PIP5K2C = PIP5K2C (Homo sapiens, UniProt Q8TBX8); assay: biochemical; details: read-out: %Ctrl @ 2000nM
[3] = target: JAK1(JH2domain-pseudokinase) (Homo sapiens, UniProt P23458); assay: biochemical; details: read-out: %Ctrl @ 2000nM
JAK1(JH2domain-pseudokinase), sequence (P23458 561-860 limits assumed): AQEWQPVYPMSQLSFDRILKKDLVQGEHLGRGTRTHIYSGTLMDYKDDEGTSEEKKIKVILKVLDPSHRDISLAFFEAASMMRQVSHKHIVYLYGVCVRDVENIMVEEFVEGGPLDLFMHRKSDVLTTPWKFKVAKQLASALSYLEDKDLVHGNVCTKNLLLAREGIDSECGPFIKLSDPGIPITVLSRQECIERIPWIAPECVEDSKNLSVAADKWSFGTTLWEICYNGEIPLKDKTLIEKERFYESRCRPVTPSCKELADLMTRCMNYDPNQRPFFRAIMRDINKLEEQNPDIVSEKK

RIPK2 = RIPK2 (Homo sapiens, UniProt O43353); assay: biochemical; details: read-out: %Ctrl @ 2000nM

CC(C)COC(=O)c1[nH]c2ccc(F)cc2c1-c1cn(CC2CCN(CCNS(=O)(=O)c3ccc(CC(C)C)cc3)CC2)nn1 [AB668, isobutyl 5-fluoro-3-(1-((1-(2-((4-isobutylphenyl)sulfonamido)ethyl)piperidin-4-yl)methyl)-1H-1,2,3-triazol-4-yl)-1H-indole-2-carboxylate]
remaining activity at 2 µM (TEC): 95%
remaining activity at 2 µM [1]: 88%
remaining activity at 2 µM (CLK3): 79%
remaining activity at 2 µM (TSSK1B): 91%
remaining activity at 2 µM (PHKG1): 76%
remaining activity at 2 µM (PRKD3): 100%
remaining activity at 2 µM (FLT3(N841I)): 95%
remaining activity at 2 µM (MEK3): 100%
remaining activity at 2 µM (FGFR3(G697C)): 100%
remaining activity at 2 µM (p38-delta): 96%
remaining activity at 2 µM (PAK4): 95%
remaining activity at 2 µM (INSR): 97%
remaining activity at 2 µM (HASPIN): 100%
remaining activity at 2 µM (HCK): 96%
remaining activity at 2 µM (WNK2): 87%
cytotoxicity (HEK293 cells): no cytotoxicity
remaining activity at 2 µM (KIT(A829P)): 78%
remaining activity at 2 µM (MAPKAPK2): 92%
remaining activity at 2 µM (TRPM6): 81%
remaining activity at 2 µM (CDK11): 76%
remaining activity at 2 µM (CSF1R): 100%
remaining activity at 2 µM (EPHB1): 100%
remaining activity at 2 µM (ERBB4): 97%
remaining activity at 2 µM (AURKB): 99%
remaining activity at 2 µM (MARK3): 0%
remaining activity at 2 µM (MKNK1): 63%
expression of survivin (survivin): reduced the expression of survivin
remaining activity at 2 µM (PIM1): 91%
remaining activity at 2 µM (RAF1): 100%
remaining activity at 2 µM (CDK3): 100%
remaining activity at 2 µM (ERK2): 100%
remaining activity at 2 µM (EPHA3): 86%
remaining activity at 2 µM (MST4): 92%
remaining activity at 2 µM (p38-alpha): 87%
remaining activity at 2 µM (PRKX): 69%
remaining activity at 2 µM (ULK3): 82%
remaining activity at 2 µM [2]: 86%
remaining activity at 2 µM (MEK1): 97%
remaining activity at 2 µM (DMPK): 90%
remaining activity at 2 µM (JNK1): 77%
remaining activity at 2 µM (PIP5K2C): 81%
remaining activity at 2 µM [3]: 93%
remaining activity at 2 µM (RIPK2): 83%
